The values that follow come from patent US8841456B2, “1,5-naphthyridine derivative or salt thereof” (FUJIFILM Corporation, priority 2011, dated 2014).

Structures are written as SMILES. Where only a bound is given, the exact number is not on record here.

Experiment [1] deals with T1, glutathione S-transferase (GST)-fusion human ERK2 protein (Homo sapiens, UniProt P28482).
T1 construct: purchased Carna Biosciences, Inc; host or cells: E. coli expression system
Kind of experiment: ERK2 enzyme assay (LabChip mobility shift). The format is biochemical. As to conditions: IC50 class; 2 nM ERK2, 4.25 μM FL-Peptide 8, 43 μM ATP; read-out: ERK2 Inhibitory Activity. How it is done:
Evaluation of the ERK2 inhibitory activity of the compound of the present invention was carried out according to the method as described below.
For the ERK2 enzyme assay, a glutathione S-transferase (GST)-fusion human ERK2 protein (Carna Biosciences, Inc.) produced using an E. coli expression system was used.
12 μL of the reaction solution (2 nM ERK2, 100 mM Hepes, 10 mM MgCl2, 1.5 mM DTT, 0.003% Brij35, pH 7.5) including the ERK2 protein and a test compound at a predetermined concentration was incubatedat room temperature for 15 minutes. Thereafter, 3 μL of a mixed solution of FL-Peptide 8 (5-FAM-IPTSPITTTYFFFKKK-COOH) (Caliper Lifescience) which was a substrate and ATP(SIGMA-ALDLICH) were added thereto to a final concentration of 4.25 μM and 43 μM, respectively. The reaction solution was further incubated at 25° C. for 120 minutes to carry out an enzyme reaction.
The enzyme reaction was stopped by adding 27 μL of a reaction-stopping solution (100 mM HEPES, 11.2 mM EDTA, 5.6% Brij35, pH 7.5) including a 0.5% Coating reagent 8 (PerkinElmer, Inc.) after the reaction. Thereafter, non-phosphorylated peptides and phosphorylated peptides were separated using LabChip Ez Reader (Caliper LifeScience, Inc.) to quantify the proportion of phosphorylated peptides.
(§1) The inhibitory activity of the compounds was evaluated using an IC50 (50% inhibitory concentration). The IC50 was calculated using XLfit (IDBS).

For experiment [2], the target named is T2, human PI3Kα protein (Homo sapiens, UniProt P42336).
T2 construct: purchased Carna Biosciences, Inc; host or cells: Baculovirus expression system
T2 sequence (P42336 whole entry): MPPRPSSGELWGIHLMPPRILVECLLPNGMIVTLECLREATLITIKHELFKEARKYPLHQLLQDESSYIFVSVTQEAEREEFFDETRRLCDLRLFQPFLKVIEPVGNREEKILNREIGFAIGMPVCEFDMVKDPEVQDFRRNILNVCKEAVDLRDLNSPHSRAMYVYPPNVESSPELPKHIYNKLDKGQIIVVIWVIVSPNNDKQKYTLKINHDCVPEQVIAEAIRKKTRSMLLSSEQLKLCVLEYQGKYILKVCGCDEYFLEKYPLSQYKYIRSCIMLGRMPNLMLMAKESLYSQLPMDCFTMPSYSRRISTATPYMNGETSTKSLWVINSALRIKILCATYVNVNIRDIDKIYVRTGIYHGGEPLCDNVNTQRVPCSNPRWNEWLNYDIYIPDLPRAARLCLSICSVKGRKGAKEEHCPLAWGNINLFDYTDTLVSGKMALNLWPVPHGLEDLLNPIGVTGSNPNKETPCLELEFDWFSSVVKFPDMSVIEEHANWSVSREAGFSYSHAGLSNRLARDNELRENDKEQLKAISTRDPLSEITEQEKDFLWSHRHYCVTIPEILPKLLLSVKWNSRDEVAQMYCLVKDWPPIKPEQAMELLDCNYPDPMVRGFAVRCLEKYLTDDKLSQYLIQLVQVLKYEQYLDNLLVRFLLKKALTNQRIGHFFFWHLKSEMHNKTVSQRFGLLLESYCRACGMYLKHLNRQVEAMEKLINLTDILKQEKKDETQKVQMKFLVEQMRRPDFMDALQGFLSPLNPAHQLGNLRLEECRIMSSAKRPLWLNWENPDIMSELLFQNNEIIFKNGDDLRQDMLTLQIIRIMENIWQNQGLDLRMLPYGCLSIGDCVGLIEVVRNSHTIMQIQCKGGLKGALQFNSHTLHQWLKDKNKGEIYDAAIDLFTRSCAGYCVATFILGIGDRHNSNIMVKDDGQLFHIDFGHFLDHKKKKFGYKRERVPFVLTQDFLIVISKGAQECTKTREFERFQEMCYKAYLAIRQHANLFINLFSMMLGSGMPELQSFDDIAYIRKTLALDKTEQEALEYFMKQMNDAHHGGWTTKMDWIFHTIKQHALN
T2 sequence (P27986 whole entry partner): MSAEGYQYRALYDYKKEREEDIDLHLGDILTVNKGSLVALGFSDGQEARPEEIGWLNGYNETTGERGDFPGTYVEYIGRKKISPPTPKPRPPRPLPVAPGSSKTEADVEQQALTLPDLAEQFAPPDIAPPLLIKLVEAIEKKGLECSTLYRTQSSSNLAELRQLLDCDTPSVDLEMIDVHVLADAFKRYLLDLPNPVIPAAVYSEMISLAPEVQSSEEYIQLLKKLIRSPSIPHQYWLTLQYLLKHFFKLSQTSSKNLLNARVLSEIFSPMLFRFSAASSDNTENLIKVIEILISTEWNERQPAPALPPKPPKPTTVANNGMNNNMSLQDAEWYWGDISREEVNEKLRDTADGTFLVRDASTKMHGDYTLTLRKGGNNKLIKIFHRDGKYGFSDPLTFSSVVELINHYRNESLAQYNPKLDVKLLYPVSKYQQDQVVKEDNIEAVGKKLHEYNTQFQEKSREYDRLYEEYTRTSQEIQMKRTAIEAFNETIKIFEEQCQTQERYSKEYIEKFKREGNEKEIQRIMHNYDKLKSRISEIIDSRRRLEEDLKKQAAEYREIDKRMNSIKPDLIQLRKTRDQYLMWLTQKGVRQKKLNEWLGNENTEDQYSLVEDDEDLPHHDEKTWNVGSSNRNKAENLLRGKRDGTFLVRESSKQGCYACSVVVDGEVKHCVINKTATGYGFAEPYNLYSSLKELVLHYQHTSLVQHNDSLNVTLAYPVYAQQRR
Kind of experiment: PI3Kα enzyme assay (ADP-Glo kinase assay). The class given is biochemical. To be noted: IC50 class; 3 nM PI3Kα, 50 μM PIP2, 100 μM ATP; read-out: PI3Kα Inhibitory Activity. How it is done:
Evaluation of the PI3Kα inhibitory activity of the compound of the present invention was carried out according to the method as described below.
For the PI3Kα enzyme assay, biotinylated product of a human PI3Kα protein produced using a Baculovirus expression system (Carna Biosciences, Inc.) was used. Further, for the detection of the enzyme activity, an ADP-Glo kinase assay (PROMEGA Corporation) was used.
10 μL of a reaction solution (3 nM PI3Kα, 40 mM Tris-HCl, 20 mM MgCl2, 0.1% BSA, pH 7.5) including the human PI3Kα protein and a test compound at a predetermined concentration was incubated at room temperature for 15 minutes. Thereafter, 5 μL of a mixed solution of L-α-Phosphatidylinositol 4,5-diphosphate (PIP2) (SIGMA-ALDLICH) which was a substrate and ATP(SIGMA-ALDLICH) was added thereto to a final concentration of 50 μM and 100 μM, respectively, and the reaction solution was further incubated at 25° C. for 60 minutes to carry out an enzyme reaction.
After the reaction, 15 μL of an ADP-Glo reagent (PROMEGA Corporation) was added and the resulting liquid was incubated at room temperature for 60 minutes, whereby the enzyme reaction was stopped. Thereafter, after further adding 30 μL of a Kinase Detection Reagent (PROMEGA Corporation) and standing the resulting solution at room temperature for 40 minutes, ADP produced by the enzyme reaction was quantified by luminescence intensity.
For the measurement of luminescence intensity, EnVision (PerkinElmer, Inc.) was used.
as §1
On the technique in general: In ADP-Glo the light output rises with the ADP produced.

T1 sequence (P28482 whole entry, the tested form may be a part): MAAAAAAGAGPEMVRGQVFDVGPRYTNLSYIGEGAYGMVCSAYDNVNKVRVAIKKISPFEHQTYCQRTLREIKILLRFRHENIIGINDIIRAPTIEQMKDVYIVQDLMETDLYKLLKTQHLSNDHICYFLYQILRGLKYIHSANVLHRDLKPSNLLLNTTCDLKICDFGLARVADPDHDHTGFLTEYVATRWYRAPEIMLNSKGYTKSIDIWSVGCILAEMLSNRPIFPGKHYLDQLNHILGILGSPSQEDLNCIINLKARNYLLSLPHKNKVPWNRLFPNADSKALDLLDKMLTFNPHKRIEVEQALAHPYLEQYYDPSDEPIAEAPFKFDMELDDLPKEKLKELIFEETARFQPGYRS

For the molecule `O=C(Nc1ccc2ncc(C(=O)N3CCOCC3)cc2n1)NC1CCCC1` [Compound 0141], the IC50 in experiment [1] and in experiment [2] was greater than 10000 nM each time.
For the molecule `CN(CCNC(=O)Nc1ccc2ncc(-c3cn[nH]c3)cc2n1)Cc1ccccc1` [Compound 0108], the IC50 in experiment [1] is less than 100 nM; in experiment [2], 100 to 1000 nM.
Turning to `O=C(Nc1ccc2ncc(-c3cnn(CCN4CCC4)c3)cc2n1)NC1CCCC1` [Compound 0024], the IC50 in experiment [1] is 100 to 1000 nM; in experiment [2], less than 100 nM.
The corresponding values for `C[C@@H](NC(=O)Nc1ccc2ncc(-c3cn[nH]c3)cc2n1)C1CCCC1` [Compound 0198] are less than 100 nM and 100 to 1000 nM.
In the case of `CN1CCC(NC(=O)Nc2ccc3ncc(-c4cn[nH]c4)cc3n2)CC1` [Compound 0078], the IC50 in experiment [1] fell in the range of 100 to 1000 nM; in experiment [2], 1000 to 10000 nM.
The corresponding values for `O=C(Nc1ccc2ncc(-c3ccc(CO)cc3)cc2n1)NC1CCCC1` [Compound 0042] are less than 100 nM and 100 to 1000 nM.
`O=C(NCCc1ccccc1)Nc1ccc2ncc(-c3cn[nH]c3)cc2n1` [Compound 0089]: the IC50 is less than 100 nM in experiment [1] and 100 to 1000 nM in experiment [2].
For the molecule `O=C(NCC12CC3CC(CC(C3)C1)C2)Nc1ccc2ncc(-c3cn[nH]c3)cc2n1` [Compound 0187], the IC50 in experiment [1] is less than 100 nM; in experiment [2], 1000 to 10000 nM.
Turning to `NC(=O)c1cnc2ccc(NC(=O)NC3CCCC3)nc2c1` [Compound 0130], the IC50 in experiment [1] and in experiment [2] was 100 to 1000 nM throughout.
`O=C(Nc1ccc2ncc(-c3cn[nH]c3)cc2n1)NC1CCCCC1` [Compound 0061]: the IC50 in experiment [1] and in experiment [2] was less than 100 nM in each case.
Regarding `C[C@H](NC(=O)Nc1ccc2ncc(-c3cn[nH]c3)cc2n1)C1CCCCC1` [Compound 0079], the IC50 in experiment [1] and in experiment [2] was less than 100 nM throughout.
In the case of `O=C(NCC1CCC1)Nc1ccc2ncc(-c3cn[nH]c3)cc2n1` [Compound 0188], the IC50 in experiment [1] and in experiment [2] was less than 100 nM in each case.
With `O=C(NCCCCc1ccccc1F)Nc1ccc2ncc(-c3cn[nH]c3)cc2n1` [Compound 0171], the IC50 in experiment [1] and in experiment [2] was less than 100 nM in each case.
With `Cn1cc(-c2cnc3ccc(NC(=O)NC4CCCC4)nc3c2Cl)cn1` [Compound 0226], the IC50 in experiment [1] and in experiment [2] was less than 100 nM in each case.
With `O=C(NCCCCC1CCCCC1)Nc1ccc2ncc(-c3cnn(CCCN4CCOCC4)c3)cc2n1` [Compound 0178], the IC50 in experiment [1] and in experiment [2] was 100 to 1000 nM each time.
Take `O=C(Nc1ccc2ncc(N3CCOCC3)cc2n1)NC1CCCC1` [Compound 0008]: the IC50 in experiment [1] and in experiment [2] was less than 100 nM each time.
As to `O=C(NCCCCCc1ccccc1)Nc1ccc2ncc(-c3cn[nH]c3)cc2n1` [Compound 0096], the IC50 in experiment [1] was less than 100 nM; in experiment [2], 100 to 1000 nM.
Regarding `O=C(Nc1ccc2ncc(-c3cccnc3)cc2n1)NC1CCCC1` [Compound 0005], the IC50 in experiment [1] and in experiment [2] was 100 to 1000 nM throughout.
As to `O=C(NCC1CCC(F)(F)CC1)Nc1ccc2ncc(-c3cnn(CCCN4CCOCC4)c3)cc2n1` [Compound 0180], the IC50 in experiment [1] and in experiment [2] was less than 100 nM throughout.
Consider `O=C(Nc1ccc2ncc(-c3ccoc3)cc2n1)NC1CCCC1` [Compound 0119], for which the values for the IC50 in experiment [1] and in experiment [2] were less than 100 nM and 100 to 1000 nM, respectively.
Take `CCCNC(=O)Nc1ccc2ncc(-c3cn[nH]c3)cc2n1` [Compound 0055]: the IC50 in experiment [1] was less than 100 nM; in experiment [2], 100 to 1000 nM.
For `O=C(NCC1CCCCC1)Nc1ccc2ncc(-c3cn[nH]c3)cc2n1` [Compound 0063], the IC50 was less than 100 nM in experiment [1] and 100 to 1000 nM in experiment [2].
Take `O=C(NCC1CCCC1)Nc1ccc2ncc(-c3cn[nH]c3)cc2n1` [Compound 0081]: the IC50 in experiment [1] and in experiment [2] was less than 100 nM each time.
As to `O=C(Nc1ccc2ncc(-c3cc(O)no3)cc2n1)NC1CCCC1` [Compound 0128], the values for the IC50 in experiment [1] and in experiment [2] were 1000 to 10000 nM and 100 to 1000 nM, respectively.
Turning to `COc1ccc(Nc2cnc3ccc(NC(=O)NC4CCCC4)nc3c2)cc1` [Compound 0028], the IC50 in experiment [1] is greater than 10000 nM; in experiment [2] it was less than 100 nM.
Consider `Cn1cc(-c2cnc3ccc(NC(=S)NC(=O)c4ccccc4)nc3c2)cn1` [Compound 0251], for which the IC50 in experiment [1] and in experiment [2] was 100 to 1000 nM in each case.
For the molecule `C=Cn1cc(-c2cnc3ccc(NC(=O)NC4CCCC4)nc3c2)cn1` [Compound 0019], the IC50 in experiment [1] and in experiment [2] was less than 100 nM in each case.
For the molecule `O=C(Nc1ccc2ncc(-c3cnn(CCN4CCOCC4)c3)cc2n1)NC1CCCC1` [Compound 0004], the IC50 in experiment [1] and in experiment [2] was less than 100 nM throughout.
As for `COCCNCCn1cc(-c2cnc3ccc(NC(=O)NC4CCCC4)nc3c2)cn1` [Compound 0047], the IC50 was 100 to 1000 nM in experiment [1] and less than 100 nM in experiment [2].
On to `O=C(Nc1ccc2ncc(-c3cnc4[nH]ccc4c3)cc2n1)NC1CCCC1` [Compound 0123], for which the results for the IC50 in experiment [1] and in experiment [2] were 1000 to 10000 nM and 100 to 1000 nM, respectively.
As to `O=C(Nc1ccc2ncc(-c3cn[nH]c3)cc2n1)NC1Cc2ccccc2C1` [Compound 0086], the IC50 in experiment [1] and in experiment [2] was less than 100 nM in each case.
For `CC(CCc1ccccc1)NC(=O)Nc1ccc2ncc(-c3cnn(CCCN4CCOCC4)c3)cc2n1` (centres unmarked) [Compound 0179], the IC50 in experiment [1] and in experiment [2] was less than 100 nM each time.
`O=C(Nc1ccc2ncc(N3CCS(=O)(=O)CC3)cc2n1)NC1CCCC1` [Compound 0133]: the IC50 in experiment [1] and in experiment [2] was less than 100 nM in each case.
For `O=C(NCC1C[C@@H]2CC[C@H]1C2)Nc1ccc2ncc(-c3cn[nH]c3)cc2n1` (some centres unmarked) [Compound 0110], the IC50 in experiment [1] and in experiment [2] was less than 100 nM throughout.
As to `CN1CCC(n2cc(-c3cnc4ccc(NC(=O)NC5CCCC5)nc4c3)cn2)CC1` [Compound 0228], the IC50 in experiment [1] and in experiment [2] was less than 100 nM throughout.
`COc1cc(-c2cnc3ccc(NC(=O)NC4CCCC4)nc3c2)ccc1O` [Compound 0001]: the IC50 in experiment [1] and in experiment [2] was less than 100 nM throughout.
As to `CC1(NC(=O)Nc2ccc3ncc(-c4cnn(C5CCNCC5)c4)cc3n2)CCCC1` [Compound 0254], the IC50 was 100 to 1000 nM in experiment [1] and less than 100 nM in experiment [2].
`O=C(Nc1ccc2ncc(-c3cnn(C4CNC4)c3)cc2n1)NC1CCCC1` [Compound 0143]: the results for the IC50 in experiment [1] and in experiment [2] were 100 to 1000 nM and less than 100 nM, respectively.
On to `COCCNC(=O)Nc1ccc2ncc(-c3cn[nH]c3)cc2n1` [Compound 0098], for which the results for the IC50 in experiment [1] and in experiment [2] were less than 100 nM and 100 to 1000 nM, respectively.
Regarding `CC(C)CC(C)NC(=O)Nc1ccc2ncc(-c3cn[nH]c3)cc2n1` (centres unmarked) [Compound 0087], the IC50 in experiment [1] and in experiment [2] was less than 100 nM throughout.
Take `CC(C)[C@H](C)NC(=O)Nc1ccc2ncc(-c3cn[nH]c3)cc2n1` [Compound 0083]: the IC50 in experiment [1] and in experiment [2] was less than 100 nM each time.
`O=C(NCCn1cnc2ccccc21)Nc1ccc2ncc(-c3cn[nH]c3)cc2n1` [Compound 0111]: the values for the IC50 in experiment [1] and in experiment [2] were 100 to 1000 nM and 1000 to 10000 nM, respectively.
With `O=C(NCC1C[C@@H]2CC[C@H]1C2)Nc1ccc2ncc(-c3cnn(CCN4CCNCC4)c3)cc2n1` (some centres unmarked) [Compound 0252], the IC50 in experiment [1] and in experiment [2] was 100 to 1000 nM throughout.
